Results on 38 compounds are retold here after patent US9365566B2 (Takeda Pharmaceutical Company Limited, priority 2012, dated 2016).

The target in this test is T1, human BTK (Homo sapiens, UniProt Q06187).
T1 construct: GST (Glutathione-S-Transferase) (cleaved yes); made in house; host or cells: Spodoptera frugiperda Sf9 cells (baculovirus, Bac-to-Bac)
T1 sequence (Q06187 382-659): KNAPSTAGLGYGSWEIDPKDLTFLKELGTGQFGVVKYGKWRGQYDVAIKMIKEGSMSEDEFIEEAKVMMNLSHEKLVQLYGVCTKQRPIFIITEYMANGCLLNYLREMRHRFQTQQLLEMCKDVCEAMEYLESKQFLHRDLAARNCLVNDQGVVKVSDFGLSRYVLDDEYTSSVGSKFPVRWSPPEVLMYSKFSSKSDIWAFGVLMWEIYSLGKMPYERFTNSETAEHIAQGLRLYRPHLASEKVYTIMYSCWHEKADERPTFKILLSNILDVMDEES
Description: BTK inhibition assay: BTK-mediated phosphorylation of FAM-labeled substrate 5-FAM-EEPLYWSFPAKKK-NH2 (Caliper LC-3000). The test is classed as biochemical. The following applies: pIC50 = -log(IC50), IC50 molar; residues 382 to 659 of human BTK; incubated at room temperature for 60 minutes; larger values represent higher potency. The source says: The activity of compounds as BTK inhibitors may be determined by a variety of methods, including in vitro and in vivo methods.
This construct engineers an in-frame translational fusion with the Glutathione-S-Transferase (GST) protein for use in affinity purification. The fusion protein derived from this construct contains a protease recognition sequence to liberate the BTK from the GST affinity tag. High-titer baculoviral stocks, generated using the Bac-to-Bac® system (Invitrogen), are used to express the recombinant protein in Spodoptera frugiperda Sf9 cells in 10 L Wave bags. Recombinant proteins are isolated from cellular extracts by passage over Glutathione Sepharose 4B (GE Healthcare) and the BTK moiety is released from the GST affinity tag by treatment with PreScission protease. The BTK recombinant protein is further purified by size exclusion chromatography (HiLoad 16/60 Superdex 200, GE Healthcare) in a buffer containing 20 mM Hepes (pH 7.4), 50 mM NaCl, 10 mM MgCl2, 0.25 mM TCEP and 0.1 mM EDTA. The purity of the fractions is assessed by SDS PAGE and the peak protein fractions are pooled and concentrated using Amicon Ultra-15 Centrifugal Filter Devices (Millipore).
The inhibitory properties of compounds relative to BTK is determined using a black 384-well-plate format in a buffer which contains 50 mM Hepes, 10 mM NaCl, 10 mM MgCl2, 0.2 mM EDTA, 0.01% Brij35®, 1 mM DTT, and 0.1 mg/mL BSA at pH 7.3. The test compound is prepared in DMSO using 2-fold serial dilutions for 11 data points, which are added to the buffer so that each dilution contains 3% DMSO. […] The reaction mixtures are incubated at room temperature for 60 minutes and then quenched by adding 25 μL of 50 mM EDTA. To quantify the fluorescent-labeled substrate and product following reaction, the test plate is loaded on a Caliper LC-3000, which measures percent of conversion by microfluidic-based separation.
The compounds were tested in accordance with the assay described on page 34 of the specification.
In the case of `NC(=O)c1nnc2c(-c3ccc4c(c3)NC(=O)C4)cccc2c1N` [Example 20, 4-amino-8-(2-oxoindolin-6-yl)cinnoline-3-carboxamide], inhibition was half-maximal at 39800 nM (IC50).

`Cc1ccc2c(N)c(C(N)=O)nnc2c1-c1cnc2cc[nH]c2c1` [Example 21, 4-amino-7-methyl-8-(1H-pyrrolo[3,2-b]pyridin-6-yl)cinnoline-3-carboxamide]: the 50% inhibitory concentration (IC50) was 126 nM.

Turning to `Cc1ccc2c(N)c(C(N)=O)nnc2c1-c1ccc2nc[nH]c2c1` [Example 22, 4-amino-8-(1H-benzo[d]imidazol-6-yl)-7-methylcinnoline-3-carboxamide], the IC50 is 15.8 nM.

For the compound `Cc1ccc2c(N)c(C(N)=O)nnc2c1-c1ccc2ncn(C)c2c1` [Example 23, 4-amino-7-methyl-8-(1-methyl-1H-benzo[d]imidazol-6-yl)cinnoline-3-carboxamide], half-maximal inhibition (IC50) required 50.1 nM.

`Cc1ccc2c(N)c(C(N)=O)nnc2c1-c1ccc2[nH]ccc2c1` [Example 24, 4-amino-8-(1H-indol-5-yl)-7-methylcinnoline-3-carboxamide] showed an IC50 of 251 nM.

Compound `Cc1ccc2c(N)c(C(N)=O)nnc2c1-c1ccc2c(cnn2C)c1` [Example 25, 4-amino-7-methyl-8-(1-methyl-1H-indazol-5-yl)cinnoline-3-carboxamide] showed an IC50 of 31.6 nM.

`Cc1ccc2c(N)c(C(N)=O)nnc2c1-c1ccc2cc[nH]c2c1` [Example 26, 4-amino-8-(1H-indol-6-yl)-7-methylcinnoline-3-carboxamide]: the half-maximal inhibitory concentration (IC50) is 158 nM. Against the preceding compound, the IC50 is about 5-fold higher.

Turning to `NC(=O)c1nnc2c(-c3ccc4[nH]ccc4c3)cccc2c1N` [Example 27, 4-amino-8-(1H-indol-5-yl)cinnoline-3-carboxamide], the 50% inhibitory concentration (IC50) was 1580 nM.

`Cc1ccc2c(N)c(C(N)=O)nnc2c1-c1ccc2cn[nH]c2c1` [Example 28, 4-amino-8-(1H-indazol-6-yl)-7-methylcinnoline-3-carboxamide]: the IC50 is 7.94 nM.

Take `Cc1c(-c2cccc3c(N)c(C(N)=O)nnc23)ccc2c1cnn2C` [Example 30, 4-amino-8-(1,4-dimethyl-1H-indazol-5-yl)cinnoline-3-carboxamide]: the IC50 was 316 nM.

In turn, `Cc1c(-c2cccc3c(N)c(C(N)=O)nnc23)ccc2[nH]ncc12` [Example 31, 4-amino-8-(4-methyl-1H-indazol-5-yl)cinnoline-3-carboxamide] gave an IC50 of 39.8 nM. This IC50 is about 7.9-fold lower than that of the compound before.

Take `Cc1ccc2c(N)c(C(N)=O)nnc2c1-c1cc(C)c2c(cnn2C)c1` [Example 32, 4-amino-8-(1,7-dimethyl-1H-indazol-5-yl)-7-methylcinnoline-3-carboxamide]: the concentration for half-maximal inhibition (IC50) was 50.1 nM.

In turn, `Cc1ccc2c(N)c(C(N)=O)nnc2c1-c1cc(C)c2[nH]ncc2c1` [Example 33, 4-amino-7-methyl-8-(7-methyl-1H-indazol-5-yl)cinnoline-3-carboxamide] showed an IC50 of 50.1 nM. This lies in the double-digit nanomolar range.

Take `Cn1ncc2cc(-c3cc(C(F)(F)F)cc4c(N)c(C(N)=O)nnc34)ccc21` [Example 34, 4-amino-8-(1-methyl-1H-indazol-5-yl)-6-(trifluoromethyl)cinnoline-3-carboxamide]: the half-inhibitory concentration (IC50) was 1580 nM.

The compound `Cn1ncc2cc(-c3c(C(F)(F)F)ccc4c(N)c(C(N)=O)nnc34)ccc21` [Example 35, 4-amino-8-(1-methyl-1H-indazol-5-yl)-7-(trifluoromethyl)cinnoline-3-carboxamide] had an IC50 of 79.4 nM.

The compound `Cc1ccc2c(N)c(C(N)=O)nnc2c1-c1ccc2c(c1)c(C)nn2C` [Example 36, 4-amino-8-(1,3-dimethyl-1H-indazol-5-yl)-7-methylcinnoline-3-carboxamide] showed a concentration for half-maximal inhibition (IC50) of 501 nM.

Compound `Cc1nn(C)c2ccc(-c3cccc4c(N)c(C(N)=O)nnc34)cc12` [Example 37, 4-amino-8-(1,3-dimethyl-1H-indazol-5-yl)cinnoline-3-carboxamide] showed a half-maximal inhibitory concentration (IC50) of 3980 nM.

`COc1ccc(-c2ccc3cn[nH]c3c2)c2nnc(C(N)=O)c(N)c12` [Example 38, 4-amino-8-(1H-indazol-6-yl)-5-methoxycinnoline-3-carboxamide] had an IC50 of 39.8 nM. Compared with the last compound, the IC50 is about 100-fold lower.

Compound `COc1ccc(-c2cc3[nH]ncc3cc2C)c2nnc(C(N)=O)c(N)c12` [Example 39, 4-amino-5-methoxy-8-(5-methyl-1H-indazol-6-yl)cinnoline-3-carboxamide] had an IC50 of 7.94 nM. Against the preceding compound, the IC50 is about 5-fold lower.

On to `COc1ccc2c(N)c(C(N)=O)nnc2c1-c1ccc2cn[nH]c2c1` [Example 41, 4-amino-8-(1H-indazol-6-yl)-7-methoxycinnoline-3-carboxamide], for which the IC50 is 25.1 nM.

In turn, `COc1cc(C)c(-c2ccc3cn[nH]c3c2)c2nnc(C(N)=O)c(N)c12` [Example 42, 4-amino-8-(1H-indazol-6-yl)-5-methoxy-7-methylcinnoline-3-carboxamide] showed an IC50 of 10 nM.

The compound `Cc1cc2cn[nH]c2cc1-c1ccc(F)c2c(N)c(C(N)=O)nnc12` [Example 43, 4-amino-5-fluoro-8-(5-methyl-1H-indazol-6-yl)cinnoline-3-carboxamide] gave an IC50 of 6.31 nM.

`Cc1cc2cnn(C)c2cc1-c1cccc2c(N)c(C(N)=O)nnc12` [Example 44, 4-amino-8-(1,5-dimethyl-1H-indazol-6-yl)cinnoline-3-carboxamide] gave a concentration for half-maximal inhibition (IC50) of 501 nM.

`Cc1ccc2c(N)c(C(N)=O)nnc2c1-c1ccc2cnn(C)c2c1` [Example 45, 4-amino-7-methyl-8-(1-methyl-1H-indazol-6-yl)cinnoline-3-carboxamide] had an IC50 of 100 nM. This IC50 lies about 5-fold lower than the previous one.

The compound `COc1ccc2c(N)c(C(N)=O)nnc2c1-c1ccc2nc[nH]c2c1` [Example 46, 4-amino-8-(1H-benzo[d]imidazol-6-yl)-7-methoxycinnoline-3-carboxamide] gave an IC50 of 63.1 nM. Compared with the last compound, the IC50 is about 1.6-fold lower.

With `Cc1ccc2c(N)c(C(N)=O)nnc2c1-c1cnc2[nH]ncc2c1` [Example 47, 4-amino-7-methyl-8-(1H-pyrazolo[3,4-b]pyridin-5-yl)cinnoline-3-carboxamide], it took 79.4 nM to reach half-maximal inhibition (IC50).

On to `Cc1ccc2c(N)c(C(N)=O)nnc2c1-c1ccc2[nH]nnc2c1` [Example 48, 4-amino-8-(1H-benzo[d][1,2,3]triazol-5-yl)-7-methylcinnoline-3-carboxamide], for which the half-inhibitory concentration (IC50) was 20 nM. Against the preceding compound, the IC50 is about 4-fold lower.

Consider `Cc1cc2[nH]ncc2cc1-c1cccc2c(N)c(C(N)=O)nnc12` [Example 49, 4-amino-8-(6-methyl-1H-indazol-5-yl)cinnoline-3-carboxamide], for which inhibition was half-maximal at 10 nM (IC50). This IC50 is about 2-fold lower than that of the compound before.

In turn, `Cc1ccc2c(N)c(C(N)=O)nnc2c1-c1ccc2[nH]nc(C)c2c1` [Example 50, 4-amino-7-methyl-8-(3-methyl-1H-indazol-5-yl)cinnoline-3-carboxamide] showed a half-inhibitory concentration (IC50) of 100 nM. Against the preceding compound, the IC50 is about 10-fold higher.

As for `COc1ccc2c(N)c(C(N)=O)nnc2c1-c1ccc2[nH]ncc2c1` [Example 51, 4-amino-8-(1H-indazol-5-yl)-7-methoxycinnoline-3-carboxamide], half-maximal inhibition (IC50) required 12.6 nM.

With `Cc1ccc2c(N)c(C(N)=O)nnc2c1-c1ccc2cn(C)nc2c1` [Example 52, 4-amino-7-methyl-8-(2-methyl-2H-indazol-6-yl)cinnoline-3-carboxamide], 2510 nM corresponded to half-maximal inhibition (IC50).

On to `Cc1cc(C)c2c(N)c(C(N)=O)nnc2c1-c1ccc2cn[nH]c2c1` [Example 53, 4-amino-8-(1H-indazol-6-yl)-5,7-dimethylcinnoline-3-carboxamide], for which the 50% inhibitory concentration (IC50) is 50.1 nM.

In turn, `NC(=O)c1nnc2c(-c3ccc4cn[nH]c4c3)c(Cl)ccc2c1N` [Example 54, 4-amino-7-chloro-8-(1H-indazol-6-yl)cinnoline-3-carboxamide] showed an IC50 of 15.8 nM. Compared with the last compound, the IC50 is about 3.2-fold lower.

Compound `Cc1cc2c(cnn2C)cc1-c1cccc2c(N)c(C(N)=O)nnc12` [Example 55, 4-amino-8-(1,6-dimethyl-1H-indazol-5-yl)cinnoline-3-carboxamide] showed an IC50 of 39.8 nM.

Take `Cc1cc(F)c2c(N)c(C(N)=O)nnc2c1-c1ccc2cn[nH]c2c1` [Example 56, 4-amino-5-fluoro-8-(1H-indazol-6-yl)-7-methylcinnoline-3-carboxamide]: half-maximal inhibition (IC50) required 12.6 nM. This IC50 lies about 3.2-fold lower than the previous one.

`Cc1ccc2c(N)c(C(N)=O)nnc2c1-c1ccc2ccncc2c1` [Example 57, 4-amino-8-(isoquinolin-7-yl)-7-methylcinnoline-3-carboxamide] gave a half-inhibitory concentration (IC50) of 200 nM.

For the compound `Cc1ccc2c(N)c(C(N)=O)nnc2c1-c1ccc2cnccc2c1` [Example 58, 4-amino-8-(isoquinolin-6-yl)-7-methylcinnoline-3-carboxamide], half-maximal inhibition (IC50) was put at 50.1 nM. This IC50 lies about 4-fold lower than the previous one.

For the compound `Cc1cc(F)c2c(N)c(C(N)=O)nnc2c1-c1ccc2[nH]ncc2c1` [Example 60, 4-amino-5-fluoro-8-(1H-indazol-5-yl)-7-methylcinnoline-3-carboxamide], 7.94 nM corresponded to half-maximal inhibition (IC50).

As usually defined, the IC50 is the concentration at which inhibition is half-maximal. A lower IC50 goes with greater potency.
